In patent US12403086B2, “Solid drug tablets for implantable drug delivery devices” (TARIS Biomedical LLC, priority 2009, dated 2025):

What was measured:
[1] = In vitro drug release from silicone tube devices loaded with solid lidocaine tablets (diffusion through the wall of the drug reservoir); type: physicochemical; settings: silicone tube ID about 0.060 in, OD 0.076 in, length about 3 cm, payload about 60 mg, no aperture; in vitro in water at about 37° C.
Method: A study was performed to determine the feasibility of delivering drug through the wall of a drug reservoir via diffusion. Devices were formed form silicone tubes having an inner diameter of about 0.060 inches, an outer diameter of 0.076 inches, and a length of about 3 cm. The devices were loaded with solid drug tablets of lidocaine, for a total payload of about 60 mg. Some of the devices included an aperture formed through the tube wall, the aperture having a diameter of 150 μm. These devices were loaded with solid tablets of either lidocaine hydrochloride monohydrate or a combination of lidocaine hydrochloride monohydrate and lidocaine base. […] The devices were tested in vitro in water at about 37° C.

[2] = In vitro drug release from silicone tube devices loaded with lidocaine base tablets, with varying numbers of apertures; type: physicochemical; settings: silicone tubes about 3 cm, payload about 60 mg, in vitro in water at about 37° C.
Method: Another study was performed to investigate the feasibility of delivering drug from a device through both a wall of a drug reservoir and from an aperture in the wall of the drug reservoir. Devices were formed form silicone tubes having a length of about 3 cm. The devices were loaded with solid drug tablets of lidocaine base, for a total payload of about 60 mg. […] The devices were tested in vitro in water at about 37° C.

CCN(CC)CC(=O)Nc1c(C)cccc1C [lidocaine base, lidocaine]
delivery of drug via diffusion through the silicone wall of the drug reservoir [1]: feasible to deliver drug via diffusion through a silicone wall without an aperture
release from silicone tube without apertures ([2]; no apertures (ID 0.060/OD 0.076 in and ID 0.062/OD 0.095 in)): can be released from a silicone tube without any apertures
effect of apertures on release rate ([2]; 0, 1 (150 μm), 2, 30 or 60 (360 μm) apertures): release rate can be increased by adding apertures to the device
